Experimental data published in ChEMBL document CHEMBL3120120, “Toxicological and pharmacological evaluation, antioxidant, ADMET and molecular modeling of selected racemic chromenotacrines {11-amino-12-aryl-8,9,10,12-tetrahydro-7H-chromeno[2,3-b]quinolin-3-ols} for the potential prevention and treatment of Alzheimer's disease” (Eur J Med Chem, 2014).
Active and inactive are the calls of the source. The calls are words filed in the database; no cut-off is given here.

Legend:
Glycine max = assay: Inhibition of soybean lipoxygenase assessed as conversion of sodium linoleate to 13-hydroperoxylinoleic acid at 100 uM by UV absorbance assay
[1] = Antioxidant activity against AAPH-induced lipid peroxidation assessed as inhibition of conjugated diene hydroperoxide production at 100 uM; type: functional
in vitro [2] = conditions: human, HepG2 cells
Description: Hepatotoxicity against human HepG2 cells assessed as cell viability at 100 uM after 24 hrs by MTT assay relative to control

HepG2 [3] = assay: Hepatotoxicity against human HepG2 cells assessed as cell viability after 24 hrs by MTT assay; type: toxicity, cell-based; conditions: hepg2, 24 h
in vitro [4] = conditions: human, HepG2 cells; remark: listed apart in the source
Description: Hepatotoxicity against human HepG2 cells assessed as cell viability at 300 uM after 24 hrs by MTT assay relative to control

Acetylcholinesterase [5] = target: T1, Acetylcholinesterase (Electrophorus electricus, UniProt O42275)
Description: Inhibition of electric eel AchE using acetylcholine as substrate preincubated for 15 mins followed by substrate addition measured for 5 mins by Ellman method

in vitro [6] = conditions: human, HepG2 cells; remark: listed apart in the source
Description: Hepatotoxicity against human HepG2 cells assessed as cell viability at 3 uM after 24 hrs by MTT assay relative to control

in vitro [7] = conditions: human, HepG2 cells; remark: listed apart in the source
Description: Hepatotoxicity against human HepG2 cells assessed as cell viability at 10 uM after 24 hrs by MTT assay relative to control

in vitro [8] = conditions: human, HepG2 cells; remark: listed apart in the source
Description: Hepatotoxicity against human HepG2 cells assessed as cell viability at 1 uM after 24 hrs by MTT assay relative to control

in vitro [9] = conditions: human, HepG2 cells; remark: listed apart in the source
Description: Hepatotoxicity against human HepG2 cells assessed as cell viability at 30 uM after 24 hrs by MTT assay relative to control

[10] = Neuroprotective activity in Wistar rat embryo primary cortical neuron assessed as reversal of SNP-induced ROS formation at 10 uM after 24 hrs by spectrofluorometric analysis relative to control; type: functional, Cerebral cortex neuron
[11] = target: Acetylcholinesterase (Electrophorus electricus) (UniProt O42275); assay: Noncompetitive inhibition of electric eel AchE using acetylcholine as substrate at 0.01 to 10 uM preincubated for 15 mins followed by substrate addition measured for 5 mins by Lineweaver-Burk plot analysis
[12] = Neuroprotective activity in Wistar rat embryo primary cortical neuron assessed as reduction of oligomycin A-induced cell death by measuring cell viability after 24 hrs by XTT assay relative to control; type: functional, cell-based; conditions: Cerebral cortex neuron
SH-SY5Y = assay: Antioxidant activity in human SH-SY5Y cells assessed as decrease in H2O2-induced MDA level after 8 hrs by TBARS assay; type: functional, cell-based
[13] = Neuroprotective activity in Wistar rat embryo primary cortical neuron assessed as reversal of SNP-induced ROS formation at 1 uM after 24 hrs by spectrofluorometric analysis relative to control; type: functional, Cerebral cortex neuron
[14] = Neuroprotective activity in Wistar rat embryo primary cortical neuron assessed as reversal of SNP-induced ROS formation at 25 uM after 24 hrs by spectrofluorometric analysis relative to control; type: functional, Cerebral cortex neuron
Acetylcholinesterase [15] = target: T1, Acetylcholinesterase; assay: Noncompetitive inhibition of electric eel AchE using acetylcholine as substrate preincubated for 15 mins followed by substrate addition measured for 5 mins by Dixon plot analysis
[16] = Neuroprotective activity in Wistar rat embryo primary cortical neuron assessed as reduction of SNP-induced cell death by measuring cell viability after 24 hrs by XTT assay relative to control; type: functional, cell-based; conditions: Cerebral cortex neuron
Cerebral cortex neuron [17] = assay: Neuroprotective activity in Wistar rat embryo primary cortical neuron using DEVD-AMC as flurogenic substrate assessed as inhibition of oligomycin A-induced cell death by measuring caspase 3 activity at 25 to 50 uM by spectroflurometric analysis in presence of serum relative to control; type: functional, cell-based
[18] = Neuroprotective activity in Wistar rat embryo primary cortical neuron assessed as reduction of oligomycin A-induced cell death by measuring cell viability at 100 uM after 24 hrs by XTT assay relative to control; type: functional, Cerebral cortex neuron
[19] = Neuroprotective activity in Wistar rat embryo primary cortical neuron using DEVD-AMC as flurogenic substrate assessed as inhibition of SNP-induced cell necrosis by measuring caspase 3 activity at 25 to 50 uM by spectroflurometric analysis relative to control; type: functional, Cerebral cortex neuron
Cerebral cortex neuron [20] = assay: Neuroprotective activity in Wistar rat embryo primary cortical neuron using DEVD-AMC as flurogenic substrate assessed as inhibition of SNP-induced cell necrosis by measuring caspase 3 activity at 25 to 50 uM by spectroflurometric analysis in presence of serum relative to control; type: functional, cell-based
HepG2 [21] = assay: Hepatotoxicity against human HepG2 cells assessed as LDH release at 1 to 300 uM; type: toxicity, cell-based; conditions: hepg2, 300 µM
[22] = Neuroprotective activity in Wistar rat embryo primary cortical neuron assessed as reduction of SNP-induced cell death by measuring cell viability at 100 uM after 24 hrs by XTT assay relative to control; type: functional, Cerebral cortex neuron
[23] = Neuroprotective activity in Wistar rat embryo primary cortical neuron using DEVD-AMC as flurogenic substrate assessed as inhibition of oligomycin A-induced cell death by measuring caspase 3 activity at 25 to 50 uM by spectroflurometric analysis relative to control; type: functional, Cerebral cortex neuron
[24] = Toxicity in Wistar rat embryo primary cortical neuron assessed as increase in ROS formation at >25 uM; type: cell-based; conditions: cerebral cortex neuron

T1 sequence (O42275 whole entry): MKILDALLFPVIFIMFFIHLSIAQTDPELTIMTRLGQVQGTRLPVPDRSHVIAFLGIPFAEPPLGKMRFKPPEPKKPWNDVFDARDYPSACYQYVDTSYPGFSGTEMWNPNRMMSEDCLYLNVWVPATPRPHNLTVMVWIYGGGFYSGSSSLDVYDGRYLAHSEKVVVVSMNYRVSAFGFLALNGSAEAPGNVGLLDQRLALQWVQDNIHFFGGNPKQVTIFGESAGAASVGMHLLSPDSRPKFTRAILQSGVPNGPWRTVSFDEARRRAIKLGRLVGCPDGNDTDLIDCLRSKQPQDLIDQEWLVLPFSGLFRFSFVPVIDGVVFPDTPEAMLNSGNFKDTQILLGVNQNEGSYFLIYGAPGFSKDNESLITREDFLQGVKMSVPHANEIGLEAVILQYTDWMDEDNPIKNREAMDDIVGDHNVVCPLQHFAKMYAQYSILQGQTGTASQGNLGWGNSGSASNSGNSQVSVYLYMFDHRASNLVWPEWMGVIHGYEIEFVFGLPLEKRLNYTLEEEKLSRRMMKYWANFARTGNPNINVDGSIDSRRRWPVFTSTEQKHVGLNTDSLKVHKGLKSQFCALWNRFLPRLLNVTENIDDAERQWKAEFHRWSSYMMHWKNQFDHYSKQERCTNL
Acetylcholinesterase (Electrophorus electricus), sequence (O42275 24-633 limits assumed): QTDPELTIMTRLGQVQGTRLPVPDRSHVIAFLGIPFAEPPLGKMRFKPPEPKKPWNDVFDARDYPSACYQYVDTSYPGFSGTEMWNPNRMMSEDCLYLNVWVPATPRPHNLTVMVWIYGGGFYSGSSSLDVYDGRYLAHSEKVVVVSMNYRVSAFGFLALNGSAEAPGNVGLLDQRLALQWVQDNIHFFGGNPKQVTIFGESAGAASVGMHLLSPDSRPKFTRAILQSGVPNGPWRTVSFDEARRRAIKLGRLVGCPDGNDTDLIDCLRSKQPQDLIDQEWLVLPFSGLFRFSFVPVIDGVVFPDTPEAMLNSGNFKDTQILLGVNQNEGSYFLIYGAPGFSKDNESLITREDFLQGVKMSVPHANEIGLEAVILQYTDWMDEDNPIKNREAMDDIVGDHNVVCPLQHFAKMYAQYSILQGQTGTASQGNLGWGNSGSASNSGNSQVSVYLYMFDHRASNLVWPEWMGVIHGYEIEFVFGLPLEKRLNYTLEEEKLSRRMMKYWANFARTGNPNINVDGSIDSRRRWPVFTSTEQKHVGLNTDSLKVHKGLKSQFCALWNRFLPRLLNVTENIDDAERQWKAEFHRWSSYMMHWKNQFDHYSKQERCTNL

Structure (SMILES) | viability at 24 h, 100 µM (in vitro [2]) | Activity (HepG2 [3]) | viability at 24 h, 300 µM (in vitro [4]) | IC50 (Acetylcholinesterase [5]) | viability at 24 h, 3 µM (in vitro [6]) | viability at 24 h, 10 µM (in vitro [7]) | viability at 24 h, 1 µM (in vitro [8]) | viability at 24 h, 30 µM (in vitro [9]) | other results
CC(Cc1ccc(O)c(O)c1)C(C)Cc1ccc(O)c(O)c1 (stereo unspecified) | – | – | – | – | – | – | – | – | inhibition (Glycine max): 84%
Cc1c(C)c2c(c(C)c1O)CCC(C)(C(=O)O)O2 (stereo unspecified) | – | – | – | – | – | – | – | – | inhibition [1]: 63%
CN(C)c1ccc(C2c3ccc(O)cc3Oc3nc4c(c(N)c32)CCCC4)cc1 (racemic) | 85.5% | Dose-dependent effect | 80.3% | 290 nM | 88.5% | 86.1% | 99% | 85.5% | –
COc1cc(C2c3ccc(O)cc3Oc3nc4c(c(N)c32)CCCC4)cc(OC)c1OC (racemic) | 98.3% | Dose-dependent effect | 103% | 41 nM | 98.7% | 101% | 102% | 100% | fold change (FC) [10]: 1.93; inhibition [11]: Active; EC50 [12]: 1110 nM; Activity (SH-SY5Y): Dose-dependent effect; fold change (FC) [13]: 2.31; fold change (FC) [14]: 1.81; Ki (Acetylcholinesterase [15]): 47 nM; EC50 [16]: 3470 nM; inhibition (Cerebral cortex neuron [17]): Active; Activity [18]: 81.08%; fold change (FC) [19]: 3.43; inhibition (Cerebral cortex neuron [20]): Active; inhibition [1]: 85%; inhibition (Glycine max): 18%; Activity (HepG2 [21]): Non-toxic; Activity [22]: 148.12%; fold change (FC) [23]: 1.83; Activity [24]: Toxic
Cc1ccc(C2c3ccc(O)cc3Oc3nc4c(c(N)c32)CCCC4)cc1 (racemic) | 71.7% | Dose-dependent effect | 47.9% | 65 nM | 89.5% | 85.6% | 96.9% | 74.3% | –
COc1ccc(C2c3ccc(O)cc3Oc3nc4c(c(N)c32)CCCC4)cc1 (racemic) | 85.9% | Dose-dependent effect | 75.5% | 530 nM | 96.8% | 94.1% | 97.3% | 95% | –
Nc1c2c(nc3c1C(c1ccc(Br)cc1)c1ccc(O)cc1O3)CCCC2 (racemic) | 74.4% | Dose-dependent effect | 61.5% | 7 nM | 87.4% | 84.8% | 99% | 76.9% | –
Nc1c2c(nc3c1C(c1ccccc1)c1ccc(O)cc1O3)CCCC2 (racemic) | 55.8% | Dose-dependent effect | 49.6% | 550 nM | 67.4% | 66.2% | 99.5% | 62.4% | –
Nc1c2c(nc3c1C(c1ccc(F)cc1)c1ccc(O)cc1O3)CCCC2 (racemic) | 55.5% | Dose-dependent effect | 50.1% | 103 nM | 75.1% | 62.8% | 91% | 55.7% | –
